By IC50 is commonly meant the concentration that inhibits the measured activity by half.

Entries after “also recorded” stand apart in the source; their conditions may differ. Read-outs that look alike come from different tables or passages of the source.

From patent US20140309192A1, “MODULATORS OF THE G PROTEIN-COUPLED MAS RECEPTOR AND THE TREATMENT OF DISORDERS RELATED THERETO” (ARENA PHARMACEUTICALS, INC., priority 2011, published 2014) come the findings set out here.

The target in assay [1] is T1, rat Mas receptor (Rattus norvegicus, UniProt P12526).
T1 construct: expressed in transfected cells; host or cells: HEK293 (ATCC CRL-1573)
T1 sequence (P12526 1-324): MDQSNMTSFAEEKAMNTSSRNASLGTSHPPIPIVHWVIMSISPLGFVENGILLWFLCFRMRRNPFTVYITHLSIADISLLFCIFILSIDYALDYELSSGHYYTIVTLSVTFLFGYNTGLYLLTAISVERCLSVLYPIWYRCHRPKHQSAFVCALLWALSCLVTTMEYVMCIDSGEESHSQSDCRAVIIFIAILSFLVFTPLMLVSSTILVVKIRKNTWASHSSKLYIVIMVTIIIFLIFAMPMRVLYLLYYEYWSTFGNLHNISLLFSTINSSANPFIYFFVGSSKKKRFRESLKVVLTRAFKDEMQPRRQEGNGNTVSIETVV
In words: HTRF IP1 assay, HEK293 cells expressing rat Mas receptor. The assay is classed as cell-based.

Assay [2] addresses T2, human Mas receptor (Homo sapiens, UniProt P04201).
T2 construct: expressed in transfected cells; host or cells: HEK293 (ATCC CRL-1573)
T2 sequence (P04201 1-325): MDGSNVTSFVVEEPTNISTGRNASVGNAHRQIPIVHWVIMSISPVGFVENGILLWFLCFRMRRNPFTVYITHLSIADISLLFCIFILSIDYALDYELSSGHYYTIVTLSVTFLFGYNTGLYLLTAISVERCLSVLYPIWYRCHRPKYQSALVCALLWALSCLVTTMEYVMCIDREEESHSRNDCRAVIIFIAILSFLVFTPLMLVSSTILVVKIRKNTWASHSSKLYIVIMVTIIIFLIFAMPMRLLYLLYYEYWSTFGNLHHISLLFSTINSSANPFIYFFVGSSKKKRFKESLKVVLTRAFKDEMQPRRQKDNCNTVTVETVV
Description: HTRF IP1 assay, HEK293 cells expressing human Mas receptor. Format: cell-based.

Assay [3] addresses T2, human Mas receptor. In words: cAMP Dynamic2 HTRF assay, HEK293 cells stably expressing human Mas receptor. Format: cell-based. The procedure:
cAMP accumulation in HEK293 cells stably expressing human or rat Mas receptors was determined by the 384 well cAMP Dynamic2 Homogenous Time-Resolved Fluorescence (HTRF®) assay (CisBio Cat#62AM4PEB) following the manufacturer's protocol. Briefly, cells were plated at 30,000 or 1000 cells per well in 5 μL stimulation buffer (PBS containing 500 μM IBMX and 0.1% bovine serum albumin), 5 μL of Mas compounds diluted in PBS were added to each well and serial diluted cAMP standards were also added to corresponding wells at this step. For detecting […] activities, 10 μM forskolin was included with the compounds for a final concentration of 5 μM at the stimulation step. Following 1 h stimulation at room temperature, d2-labeled cAMP and anti-cAMP cryptate conjugate diluted in detection buffer (included in the kit) were added to cells sequentially at 5 μl per well. The plates were incubated further for 1 h at room temperature. Ratiometic measurements of fluorescence emission at 665 nm and 620 nm were obtained by Pherastar fluorometer (BMG Labtech) and cAMP levels in each well were calculated according to the standard curves on each plate. IC50 values were obtained by fitting data to a nonlinear curve-fitting program (GraphPad Software, Inc., La Jolla Calif.).
Background: TR-FRET usually uses a lanthanide donor and a delayed reading to cut background.

The target in assay [4] is T2, human Mas receptor. In words: Ca2+ measurements by FLIPR assay, HEK293 cells stably expressing human Mas receptors. The assay is classed as cell-based. The conditions noted are these: HEK293 cells stably expressing the human Mas receptor. How it is done: HEK293 cells stably expressing human Mas receptors were monitored for changes in intracellular Ca^2+ using a FLIPR-384 (Molecular Devices, Sunnyvale, Calif.). Cells were seeded into black-walled clear-base 384-well plates at a density of 2×10^4 cells per well and incubated with Hank's Balanced Salt Solution (HBSS) containing 20 mM HEPES pH 7.4, 2 μM Calcium 3 dye (Molecular Devices Corporation, Sunnyvale, Calif.) and 2.5 mM probenecid at 37° C. for 60 min. Cells were washed with HBSS containing 20 mM HEPES, pH 7.4 and 2.5 mM probenecid and the plates were then placed into the FLIPR instrument to monitor cell fluorescence before and after the addition of the agonists at different concentrations.

In assay [5] the test system is LPS induced TNFα. In words: LPS model for sepsis induction, serum TNFα ELISA in mice. The assay is classed as in vivo, mouse. The procedure: Mice were treated intravenously with either 20% DMSO (vehicle), 1, 3 or 10 mg/kg Compound 170 in 20% DMSO. Alternatively animals were treated with 1 mg/kg IB-MECA in 0.1% DMSO as a positive control (n=6 per group). 1 hour after drug treatment, animals received 500 μg of LPS intraperitoneally Animals were bled 75 minutes after LPS treatment and the blood was spun down for serum. An ELISA for mouse TNFα (Invitrogen) was performed on 1:50 diluted samples the following day.
On the technique in general: ELISA stands for enzyme-linked immunosorbent assay.

As to `COc1cc([N+](=O)[O-])ccc1S(=O)(=O)N1CC(CN2CCN(c3ccccn3)CC2)C(c2cccc(F)c2)C1` (centres unmarked) [AR234960], the 50% inhibitory concentration (IC50) stood at 172 ± 9 nM in assay [1] (IP assay, HEK293 cells stably expressing rat Mas, 4 h, means ± SEM, read-out: Rat IC50); 351 ± 55 nM in assay [2] (IP assay, HEK293 cells stably expressing human Mas, 4 h, means ± SEM, read-out: Human IC50); 719 ± 12 nM in assay [3] (cAMP assay with forskolin, read-out: Gi coupling IC50). For the same molecule, the “ligand activity in IP assay, rat Mas” value in assay [1] (Table C, line under Rat IC50) is given as “(agonist)”. The “ligand activity in IP assay, human Mas” value in assay [2] (Table C, line under Human IC50) is “(agonist)”. The “forskolin stimulated cAMP levels (Mas-Gi activity)” value in assay [3] (cells stably expressing human or rat Mas receptor, 5 μM forskolin) was “dose dependent reduction”. Besides, the “intracellular Ca2+” value in assay [4] is “significant increase”.

`NC(=O)[C@H](CO)NCc1ccc(C(=O)Nc2ccc(Cl)cc2N2CCN(CCC(F)(F)F)CC2)c(F)c1F` [Compound 170, (S)-4-((1-Amino-3-hydroxy-1-oxopropan-2-ylamino)methyl)-N-(4-chloro-2-(4-(3,3,3-trifluoropropyl)piperazin-1-yl)phenyl)-2,3-difluorobenzamide]: the 50% inhibitory concentration (IC50) in assay [1] (HTRF IP1 assay, rat Mas receptor (Table B.1), read-out: IC50) came to 21.4 nM; in assay [2] (HTRF IP1 assay, human Mas receptor (Table B.2), read-out: IC50) it was 15.6 nM. Moreover, the “Suppression of TNFα induction compared with positive control” value in assay [5] (10 mg/kg i.v., IB-MECA 1 mg/kg) is recorded as “not statistically different from the positive control IB-MECA”. For the same molecule, the “Suppression of TNFα induction” value in assay [5] (1, 3 or 10 mg/kg i.v. 1 hour before 500 μg LPS i.p., serum 75 minutes after LPS) was “significant to control treated animals at the 10 and 3 mg/kg dose; also recorded: suppression of TNFα induction”.
